Assay results reported in the OligoGym collection.
HELM strings list units from the 5' end as sugar, base in round brackets, then linkage (d deoxyribose, r ribose, m 2'-O-methyl, p phosphodiester). Strings are as the collection lists them; they lack the last nucleoside at the 3' end of the tested compound. [moe] = 2'-O-(2-methoxyethyl) (MOE); [sp] = phosphorothioate linkage; [m5C] = 5-methylcytosine

Target: UBE3A-ATS
Assay: mouse, dose not given
Conditions: ASO

Substance | 3 h FOB score
RNA1{[moe](G)[sp].[moe]([m5C])p.[moe](T)p.[moe](A)p.[moe](T)p.d(A)[sp].d([m5C])[sp].d([m5C])[sp].d([m5C])[sp].d([m5C])[sp].d(T)[sp].d(A)[sp].d(G)[sp].d(G)[sp].d(A)[sp].[moe](T)p.[moe]([m5C])p.[moe](A)[sp].[moe](G)}$$$$ (last 3' nucleoside missing) | 3.8 score 0-7
RNA1{[moe](T)[sp].[moe]([m5C])[sp].[moe]([m5C])[sp].[moe](T)[sp].[moe](T)[sp].d(T)[sp].d(A)[sp].d(G)[sp].d([m5C])[sp].d(A)[sp].d(T)[sp].d(T)[sp].d(T)[sp].d([m5C])[sp].d(T)[sp].[moe](A)[sp].[moe](T)[sp].[moe](T)[sp].[moe](A)}$$$$ (last 3' nucleoside missing) | 6.5 score 0-7
RNA1{[moe](T)[sp].[moe]([m5C])p.[moe](A)p.[moe]([m5C])p.[moe](A)p.d(T)[sp].d(T)[sp].d(A)[sp].d([m5C])[sp].d([m5C])[sp].d([m5C])[sp].d(A)[sp].d(T)[sp].d([m5C])[sp].d([m5C])[sp].[moe](G)p.[moe](T)p.[moe](T)[sp].[moe]([m5C])}$$$$ (last 3' nucleoside missing) | 0 score 0-7
RNA1{[moe](G)[sp].[moe](T)p.[moe](G)p.[moe]([m5C])p.[moe]([m5C])p.d(T)[sp].d(T)[sp].d(T)[sp].d([m5C])[sp].d(T)[sp].d(A)[sp].d(T)[sp].d(T)[sp].d(T)[sp].d([m5C])[sp].[moe](A)p.[moe](G)p.[moe](A)[sp].[moe]([m5C])}$$$$ (last 3' nucleoside missing) | 0 score 0-7
RNA1{[moe](T)[sp].[moe](T)p.[moe](A)p.[moe](G)p.[moe](T)p.d(A)[sp].d(T)[sp].d(G)[sp].d(T)[sp].d([m5C])[sp].d(G)[sp].d(A)[sp].d(G)[sp].d(A)[sp].d(A)[sp].[moe]([m5C])p.[moe](T)p.[moe]([m5C])[sp].[moe](A)}$$$$ (last 3' nucleoside missing) | 5.5 score 0-7
RNA1{[moe](A)[sp].[moe](G)p.[moe](G)p.[moe]([m5C])p.[moe](A)p.d(T)[sp].d(T)[sp].d(T)[sp].d(G)[sp].d(G)[sp].d(A)[sp].d(G)[sp].d([m5C])[sp].d(A)[sp].d(T)[sp].[moe](T)p.[moe]([m5C])p.[moe](G)[sp].[moe](G)}$$$$ (last 3' nucleoside missing) | 6.2 score 0-7
RNA1{[moe](G)[sp].[moe]([m5C])p.[moe](T)p.[moe]([m5C])p.d(A)[sp].d(G)[sp].d(T)[sp].d(T)[sp].d(A)[sp].d(G)[sp].d(G)[sp].d(T)[sp].d(T)[sp].d(A)[sp].[moe](G)p.[moe](T)p.[moe](G)p.[moe]([m5C])[sp].[moe](A)}$$$$ (last 3' nucleoside missing) | 4 score 0-7
RNA1{[moe](T)[sp].[moe]([m5C])p.[moe](A)p.[moe](T)p.d([m5C])[sp].d(T)[sp].d([m5C])[sp].d(G)[sp].d(G)[sp].d(G)[sp].d(T)[sp].d(A)[sp].d(T)[sp].d(A)[sp].[moe](T)p.[moe](A)p.[moe](A)p.[moe](A)[sp].[moe](T)}$$$$ (last 3' nucleoside missing) | 4 score 0-7
RNA1{[moe]([m5C])[sp].[moe]([m5C])p.[moe]([m5C])p.[moe](A)p.[moe](T)p.d(T)[sp].d([m5C])[sp].d(A)[sp].d(G)[sp].d([m5C])[sp].d(A)[sp].d([m5C])[sp].d(T)[sp].d(T)[sp].d(A)[sp].[moe](G)p.[moe](G)p.[moe](T)[sp].[moe](A)}$$$$ (last 3' nucleoside missing) | 4.8 score 0-7
RNA1{[moe](A)[sp].[moe](G)p.[moe](T)p.[moe](T)p.[moe](T)p.d(T)[sp].d([m5C])[sp].d(G)[sp].d([m5C])[sp].d([m5C])[sp].d([m5C])[sp].d(G)[sp].d(T)[sp].d(T)[sp].d(A)[sp].[moe]([m5C])p.[moe]([m5C])p.[moe](T)[sp].[moe]([m5C])}$$$$ (last 3' nucleoside missing) | 4 score 0-7
RNA1{[moe](T)[sp].[moe](A)p.[moe](T)p.[moe](T)p.[moe](G)p.[moe](G)p.d(T)[sp].d([m5C])[sp].d(A)[sp].d(T)[sp].d([m5C])[sp].d(T)[sp].d([m5C])[sp].d(G)[sp].d(G)[sp].d(G)[sp].[moe](T)p.[moe](A)[sp].[moe](T)}$$$$ (last 3' nucleoside missing) | 4 score 0-7
RNA1{[moe](G)[sp].[moe](T)p.[moe](G)p.[moe]([m5C])p.[moe](A)p.d(T)[sp].d(A)[sp].d([m5C])[sp].d([m5C])[sp].d([m5C])[sp].d(A)[sp].d(G)[sp].d(G)[sp].d(G)[sp].d(T)[sp].[moe](A)p.[moe](G)p.[moe](G)[sp].[moe](A)}$$$$ (last 3' nucleoside missing) | 1.2 score 0-7
RNA1{[moe](G)[sp].[moe]([m5C])p.[moe](A)p.[moe](T)p.d(A)[sp].d([m5C])[sp].d([m5C])[sp].d([m5C])[sp].d(A)[sp].d(G)[sp].d(G)[sp].d(G)[sp].d(T)[sp].d(A)[sp].[moe](G)p.[moe](G)p.[moe](A)p.[moe](T)[sp].[moe](T)}$$$$ (last 3' nucleoside missing) | 1 score 0-7
RNA1{[moe](T)[sp].[moe](T)p.[moe]([m5C])p.[moe](A)[sp].d([m5C])[sp].d([m5C])[sp].d(A)[sp].d(T)[sp].d(T)[sp].d(T)[sp].d(T)[sp].d(G)[sp].[moe](A)p.[moe]([m5C])p.[moe]([m5C])p.[moe](T)[sp].[moe](T)}$$$$ (last 3' nucleoside missing) | 0 score 0-7
RNA1{[moe](G)[sp].[moe]([m5C])p.[moe](T)p.[moe]([m5C])p.[moe](A)p.d(T)[sp].d([m5C])[sp].d(A)[sp].d([m5C])[sp].d(A)[sp].d(A)[sp].d([m5C])[sp].d(T)[sp].d(G)[sp].d(G)[sp].[moe](G)p.[moe](T)p.[moe](G)[sp].[moe](G)}$$$$ (last 3' nucleoside missing) | 1 score 0-7
RNA1{[moe](T)[sp].[moe]([m5C])p.[moe](A)p.[moe]([m5C])p.[moe]([m5C])p.[moe](A)[sp].d(T)[sp].d(T)[sp].d(T)[sp].d(T)[sp].d(G)[sp].d(A)[sp].d([m5C])[sp].d([m5C])[sp].[moe](T)p.[moe](T)[sp].[moe]([m5C])}$$$$ (last 3' nucleoside missing) | 0.3 score 0-7
RNA1{[moe](G)[sp].[moe](T)p.[moe]([m5C])p.[moe](T)p.[moe]([m5C])p.d([m5C])[sp].d([m5C])[sp].d(T)[sp].d([m5C])[sp].d(T)[sp].d(T)[sp].d(A)[sp].d(G)[sp].d(T)[sp].d(G)[sp].[moe](A)p.[moe](T)p.[moe](T)[sp].[moe](G)}$$$$ (last 3' nucleoside missing) | 4 score 0-7
RNA1{[moe](T)[sp].[moe](T)p.[moe]([m5C])p.[moe](A)p.[moe]([m5C])p.d([m5C])[sp].d(A)[sp].d(T)[sp].d(T)[sp].d(T)[sp].d(T)[sp].d(G)[sp].d(A)[sp].d([m5C])[sp].d([m5C])[sp].[moe](T)p.[moe](T)p.[moe]([m5C])[sp].[moe](T)}$$$$ (last 3' nucleoside missing) | 1 score 0-7
RNA1{[moe](T)[sp].[moe](G)p.[moe](T)p.[moe](G)p.[moe](A)p.d(G)[sp].d(A)[sp].d(T)[sp].d(A)[sp].d(A)[sp].d(T)[sp].d(T)[sp].d([m5C])[sp].d(A)[sp].d(G)[sp].[moe](G)p.[moe](A)p.[moe](G)[sp].[moe](G)}$$$$ (last 3' nucleoside missing) | 5 score 0-7
RNA1{[moe](G)[sp].[moe](T)p.[moe](T)p.[moe](T)p.[moe](T)p.[moe](T)p.d([m5C])[sp].d([m5C])[sp].d(A)[sp].d(T)[sp].d(T)[sp].d(T)[sp].d(T)[sp].d(T)[sp].d([m5C])[sp].d(T)[sp].[moe]([m5C])p.[moe](T)[sp].[moe](T)}$$$$ (last 3' nucleoside missing) | 0 score 0-7
RNA1{[moe](T)[sp].[moe](G)p.[moe]([m5C])p.[moe](A)p.[moe](T)p.d(A)[sp].d(A)[sp].d(A)[sp].d(G)[sp].d([m5C])[sp].d([m5C])[sp].d(A)[sp].d(G)[sp].d(G)[sp].d([m5C])[sp].[moe]([m5C])p.[moe](A)p.[moe](G)[sp].[moe](G)}$$$$ (last 3' nucleoside missing) | 2.2 score 0-7
RNA1{[moe](T)[sp].[moe](G)p.[moe](T)p.[moe](G)p.[moe]([m5C])p.[moe](A)[sp].d(T)[sp].d(A)[sp].d([m5C])[sp].d([m5C])[sp].d([m5C])[sp].d(A)[sp].d(G)[sp].d(G)[sp].[moe](G)p.[moe](T)[sp].[moe](A)}$$$$ (last 3' nucleoside missing) | 1 score 0-7
RNA1{[moe](A)[sp].[moe](A)p.[moe](G)p.[moe](T)p.[moe]([m5C])p.d(A)[sp].d(T)[sp].d(T)[sp].d([m5C])[sp].d([m5C])[sp].d([m5C])[sp].d([m5C])[sp].d(A)[sp].d([m5C])[sp].d([m5C])[sp].[moe]([m5C])p.[moe](T)p.[moe](G)[sp].[moe](G)}$$$$ (last 3' nucleoside missing) | 1.8 score 0-7
RNA1{[moe](G)[sp].[moe](G)p.[moe](G)p.[moe](T)p.[moe]([m5C])p.d(G)[sp].d(G)[sp].d(A)[sp].d(T)[sp].d(A)[sp].d(T)[sp].d(A)[sp].d(G)[sp].d([m5C])[sp].d(T)[sp].[moe](T)p.[moe](T)p.[moe](T)[sp].[moe](A)}$$$$ (last 3' nucleoside missing) | 5 score 0-7
RNA1{[moe](T)[sp].[moe](T)p.[moe](A)p.[moe](G)p.[moe]([m5C])p.d([m5C])[sp].d(A)[sp].d(T)[sp].d([m5C])[sp].d(A)[sp].d(T)[sp].d(T)[sp].d(T)[sp].d(T)[sp].d(A)[sp].[moe](T)p.[moe](T)p.[moe]([m5C])[sp].[moe](T)}$$$$ (last 3' nucleoside missing) | 0 score 0-7
RNA1{[moe]([m5C])[sp].[moe](T)p.[moe](G)p.[moe]([m5C])p.[moe](T)p.d(T)[sp].d(A)[sp].d(T)[sp].d(G)[sp].d(T)[sp].d(A)[sp].d(G)[sp].d([m5C])[sp].d(T)[sp].d([m5C])[sp].[moe](A)p.[moe](G)p.[moe]([m5C])[sp].[moe](T)}$$$$ (last 3' nucleoside missing) | 1 score 0-7
